How the values were obtained:
[1] = Rat PO cassette assay (oral bioavailability); assay type: in vivo, Sprague-Dawley rats; conditions: male, Sprague-Dawley, plasma, single oral gavage vs intravenous dose, 0.5 mg/kg
Source text: Oral bioavailability, or % F, is a measure of the percentage of a drug in an oral dose that actually reaches the systemic circulation. Compound losses can occur due to incomplete formulation dissolution, incomplete absorption due to compound insolubility or instability along the GI, or metabolism in the gut or across the gut wall. The fraction of the dose which reaches the hepatic portal vein must also then pass through the liver before reaching the systemic circulation. Compound metabolism, or “first-pass extraction,” can occur during this initial passage through the liver, and this is an additional potential source of compound loss. Oral bioavailability is calculated as the dose-normalized ratio of drug exposure after an oral dose to that after an intravenous dose, wherein the entire dose is delivered directly to the systemic circulation.
Each cassette study begins with 10 mM DMSO stock solutions of up to 5 different compounds. Typically, compounds are selected such no two compounds dosed in the same cassette have a molecular weight within 5 Da of each other. This simplifies subsequent bioanalysis. Appropriate volumes of each DMSO stock are added into a volume of vehicle (5% sodium bicarbonate, 5% dextrose in H2O) such that the final concentration of each compound is 0.25 mg/mL. Intravenous dosing solutions are sterile-filtered (0.2 μm) prior to dosing.
Pre-cannulated male Sprague-Dawley rats (3 per cassette per route) between 8 and 10 weeks of age were obtained from Harlan Laboratories (Indianapolis, Ind.). Rats received either a single oral gavage or a single intravenous (via lateral tail vein) dose (2 mL/kg) of the dosing solution. The final dose was 0.5 mg/kg. Serial blood samples were harvested via jugular vein cannula at 3 minutes, 15 minutes, 30 minutes, 1 hours, 2 hours, 4 hours, 6 hours, and 24 hours post-dose. Sampling was performed either manually or using automated blood samplers. Samples were collected into microtainer tubes containing EDTA as the anticoagulant and are processed to plasma by refrigerated centrifugation.
Plasma samples were extracted with 3 volumes of MeCN containing a suitable internal standard. Extracts were reconstituted into 3 volumes of water containing 1% formic acid, and analyzed via HPLC-coupled MS/MS. Plasma concentration-time data were analyzed using the Phoenix software (Pharsight Corp., St. Louis, Mo.) to calculate pharmacokinetic parameters.
Compounds of the invention of particular interest were those having a % F>10%, when tested in this assay.

human NEP = human NEP (Homo sapiens (Human), UniProt P08473); test: In vitro enzyme inhibition assay at human NEP; conditions: recombinant human NEP, fluorogenic peptide substrate, 37° C.; for Ki: pKi
human NEP, sequence (P08473 52-750): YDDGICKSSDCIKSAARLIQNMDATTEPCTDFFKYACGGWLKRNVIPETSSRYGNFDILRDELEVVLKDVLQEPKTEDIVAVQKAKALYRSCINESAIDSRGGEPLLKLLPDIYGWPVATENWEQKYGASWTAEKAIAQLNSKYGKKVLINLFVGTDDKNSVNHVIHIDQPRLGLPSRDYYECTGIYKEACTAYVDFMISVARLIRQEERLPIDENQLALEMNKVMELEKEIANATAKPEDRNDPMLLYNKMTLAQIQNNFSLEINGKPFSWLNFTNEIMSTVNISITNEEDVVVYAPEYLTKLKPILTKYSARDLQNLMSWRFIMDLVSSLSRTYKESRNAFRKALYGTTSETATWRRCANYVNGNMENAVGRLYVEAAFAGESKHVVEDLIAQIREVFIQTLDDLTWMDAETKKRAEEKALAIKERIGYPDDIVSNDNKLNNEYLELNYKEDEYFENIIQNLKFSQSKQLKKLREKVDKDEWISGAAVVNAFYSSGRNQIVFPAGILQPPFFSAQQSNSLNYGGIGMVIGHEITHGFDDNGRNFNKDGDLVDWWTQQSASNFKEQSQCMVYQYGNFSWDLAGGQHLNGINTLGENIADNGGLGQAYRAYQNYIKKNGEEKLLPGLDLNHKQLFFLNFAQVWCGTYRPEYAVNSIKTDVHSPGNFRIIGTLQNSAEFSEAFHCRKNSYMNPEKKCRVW

Cc1cc(C(=O)NC(Cc2ccc(-c3cc(Cl)ccc3F)cc2)C[C@@H](CC#N)C(=O)O)sn1 (single isomer, unassigned) [Example 52-1]
bioavailability [1]: > 10% | Ki (human NEP): ≤ 1 nM

CCc1cc(C(=O)N[C@H](Cc2ccc(-c3cc(Cl)ccc3F)cc2)C[C@@H](COC)C(=O)O)on1 [Example 1, (2S,4S)-5-(5′-Chloro-2′-fluorobiphenyl-4-yl)-4-[(3-ethylisoxazole-5-carbonyl)amino]-2-methoxymethylpentanoic Acid]
bioavailability [1]: > 10% | Ki (human NEP): ≤ 1 nM

COC[C@H](C[C@@H](Cc1ccc(-c2cc(Cl)ccc2F)cc1)NC(=O)c1c[nH]nn1)C(=O)O [Example 2-1, (2S,4S)-5-(5′-chloro-2′-fluorobiphenyl-4-yl)-2-methoxymethyl-4-[(1H-[1,2,3]triazole-4-carbonyl)amino]pentanoic acid]
bioavailability [1]: > 10% | pKi (human NEP): ≧9.0

COC[C@H](C[C@@H](Cc1ccc(-c2cc(Cl)ccc2F)cc1)NC(=O)c1n[nH]c(C(F)(F)F)n1)C(=O)O [Example 2-2, (2S,4S)-5-(5′-Chloro-2′-fluorobiphenyl-4-yl)-2-methoxymethyl-4-[(5-trifluoromethyl-1H-[1,2,4]triazole-3-carbonyl)amino]pentanoic acid]
bioavailability [1]: > 10% | pKi (human NEP): ≧9.0

COC[C@H](C[C@@H](Cc1ccc(-c2cc(Cl)ccc2F)cc1)NC(=O)c1cc(OC)no1)C(=O)O [Example 2-6, (2S,4S)-5-(5′-Chloro-2′-fluorobiphenyl-4-yl)-4-[(3-methoxyisoxazole-5-carbonyl)-amino]-2-methoxymethylpentanoic acid]
bioavailability [1]: > 10% | pKi (human NEP): ≧9.0

COC[C@H](C[C@@H](Cc1ccc(-c2cc(Cl)ccc2F)cc1)NC(=O)c1cocn1)C(=O)O [Example 2-8, (2S,4S)-5-(5′-Chloro-2′-fluorobiphenyl-4-yl)-2-methoxymethyl-4-[(oxazole-4-carbonyl)amino]pentanoic acid]
bioavailability [1]: > 10% | pKi (human NEP): ≧9.0

COC[C@H](C[C@@H](Cc1ccc(-c2cc(Cl)ccc2F)cc1)NC(=O)c1coc(C2CC2)n1)C(=O)O [Example 2-9, (2S,4S)-5-(5′-Chloro-2′-fluorobiphenyl-4-yl)-4-[(2-cyclopropyloxazole-4-carbonyl)amino]-2-methoxymethylpentanoic acid]
bioavailability [1]: > 10% | pKi (human NEP): ≧9.0

COC[C@H](C[C@@H](Cc1ccc(-c2cc(Cl)ccc2F)cc1)NC(=O)c1ncccn1)C(=O)O [Example 2-13, (2S,4S)-5-(5′-Chloro-2′-fluorobiphenyl-4-yl)-2-methoxymethyl-4-[(pyrimidine-2-carbonyl)amino]pentanoic acid]
bioavailability [1]: > 10% | pKi (human NEP): ≧9.0

COC[C@H](C[C@@H](Cc1ccc(-c2cc(Cl)ccc2F)cc1)NC(=O)c1ncc(C)o1)C(=O)O [Example 2-15, (2S,4S)-5-(5′-Chloro-2′-fluorobiphenyl-4-yl)-2-methoxymethyl-4-[(5-methyloxazole-2-carbonyl)amino]pentanoic acid]
bioavailability [1]: > 10% | pKi (human NEP): ≧9.0

CCOc1cc(C(=O)N[C@H](Cc2ccc(-c3cc(Cl)ccc3F)cc2)C[C@@H](COC)C(=O)O)n[nH]1 [Example 2-16, (2S,4S)-5-(5′-Chloro-2′-fluorobiphenyl-4-yl)-4-[(5-ethoxy-1H-pyrazole-3-carbonyl)amino]-2-methoxymethylpentanoic acid]
bioavailability [1]: > 10% | pKi (human NEP): ≧9.0

COC[C@H](C[C@@H](Cc1ccc(-c2cccc(Cl)c2)cc1)NC(=O)c1cnn[nH]1)C(=O)O [Example 3, (2S,4S)-5-(3′-Chlorobiphenyl-4-yl)-2-methoxymethyl-4-[(3H-[1,2,3]triazole-4-carbonyl)amino]pentanoic Acid]
bioavailability [1]: > 10% | pKi (human NEP): ≧9.0

COC[C@H](C[C@@H](Cc1ccc(-c2ccccc2)cc1)NC(=O)c1c[nH]nn1)C(=O)O [Example 5, (2S,4S)-5-Biphenyl-4-yl-2-methoxymethyl-4-[(1H-[1,2,3]-triazole-4-carbonyl)amino]pentanoic Acid]
bioavailability [1]: > 10% | pKi (human NEP): ≧9.0

CCOC[C@H](C[C@@H](Cc1ccc(-c2cc(Cl)ccc2F)cc1)NC(=O)c1c[nH]nn1)C(=O)O [Example 7-1, (2S,4S)-5-(5′-Chloro-2′-fluorobiphenyl-4-yl)-2-ethoxymethyl-4-[(1H-[1,2,3]triazole-4-carbonyl)amino]pentanoic acid]
bioavailability [1]: > 10% | pKi (human NEP): ≧9.0

CCOC[C@H](C[C@@H](Cc1ccc(-c2cc(Cl)ccc2F)cc1)NC(=O)c1[nH]nc(C2CC2)c1F)C(=O)O [Example 7-2, (2S,4S)-5-(5′-Chloro-2′-fluorobiphenyl-4-yl)-4-[(5-cyclopropyl-4-fluoro-2H-pyrazole-3-carbonyl)amino]-2-ethoxymethylpentanoic acid]
bioavailability [1]: > 10% | pKi (human NEP): ≧9.0

CCOC[C@H](C[C@@H](Cc1ccc(-c2cc(Cl)ccc2F)cc1)NC(=O)c1cc(O)no1)C(=O)O [Example 7-4, (2S,4S)-5-(5′-Chloro-2′-fluoro-biphenyl-4-yl)-2-ethoxymethyl-4-[(3-hydroxy-isoxazole-5-carbonyl)amino]pentanoic acid]
bioavailability [1]: > 10% | pKi (human NEP): ≧9.0

CCOC(=O)[C@H](N)C[C@@H](Cc1ccc(-c2cc(Cl)ccc2F)cc1)NC(=O)c1cnn[nH]1 [Example 14a, (2R,4R)-2-Amino-5-(5′-chloro-2′-fluorobiphenyl-4-yl)-4-[(3H-[1,2,3]triazole-4-carbonyl)amino]pentanoic Acid Ethyl Ester]
bioavailability [1]: > 10% | Ki (human NEP): 10 to 31.6 nM

CCCCCCOC(=O)[C@H](N)C[C@@H](Cc1ccc(-c2cc(Cl)ccc2F)cc1)NC(=O)c1cnn[nH]1 [Example 14b, (2R,4R)-2-Amino-5-(5′-chloro-2′-fluorobiphenyl-4-yl)-4-[(3H-[1,2,3]triazole-4-carbonyl)amino]pentanoic Acid Hexyl Ester]
bioavailability [1]: > 10% | Ki (human NEP): 31.6 to 100 nM

CCOC(=O)[C@H](N)C[C@@H](Cc1ccc(-c2cc(Cl)ccc2F)cc1)NC(=O)c1coc(=O)[nH]1 [Example 16-32, (2R,4R)-2-Amino-5-(5′-chloro-2′-fluorobiphenyl-4-yl)-4-[(2-oxo-2,3-dihydro-oxazole-4-carbonyl)amino]pentanoic acid ethyl ester]
bioavailability [1]: > 10%

CCOC(=O)[C@@H](C[C@@H](Cc1ccc(-c2cc(Cl)ccc2F)cc1)NC(=O)c1cnn[nH]1)CN1CCOCC1 [Example 69b, (2S,4S)-5-(5′-Chloro-2′-fluorobiphenyl-4-yl)-2-morpholin-4-ylmethyl-4-[(3H-[1,2,3]triazole-4-carbonyl)amino]pentanoic Acid Ethyl Ester]
bioavailability [1]: > 10%

CCOC(=O)[C@@H](C[C@@H](Cc1ccc(-c2cc(Cl)ccc2F)cc1)NC(=O)c1cnn[nH]1)CN1CCC1 [Example 84a, (2S,4S)-2-Azetidin-1-ylmethyl-5-(5′-chloro-2′-fluorobiphenyl-4-yl)-4-[(3H-[1,2,3]triazole-4-carbonyl)amino]pentanoic Acid Ethyl Ester]
bioavailability [1]: > 10%

CCOC(=O)[C@@H](C[C@@H](Cc1ccc(-c2cc(Cl)ccc2F)cc1)NC(=O)c1cnn[nH]1)CN1CC(F)C1 [Example 91a, (2S,4S)-5-(5′-Chloro-2′-fluorobiphenyl-4-yl)-2-(3-fluoroazetidin-1-ylmethyl)-4-[(3H-[1,2,3]triazole-4-carbonyl)amino]pentanoic Acid Ethyl Ester]
bioavailability [1]: > 10%
